Measurements published in ChEMBL document CHEMBL4376815, “The Development Process for Discovery and Clinical Advancement of Modern Antimalarials” (J Med Chem, 2019).
Each block holds one compound with its values, some of them ahead of it.

Key:
[1] = test system: Plasmodium falciparum; experiment: Antimalarial activity against Plasmodium falciparum 3D7; assay type: functional, organism-based
[2] = Half life in human at 25 to 1200 mg, po measured up to 480 hrs by HPLC-MS/MS analysis; assay type: ADME, organism-based; conditions: in vivo
[3] = Tmax in human at 25 to 1200 mg, po measured up to 480 hrs by HPLC-MS/MS analysis; assay type: ADME, organism-based; conditions: in vivo
[4] = AUC (0 to infinity) in human at 25 to 1200 mg, po measured up to 480 hrs by HPLC-MS/MS analysis; assay type: ADME, organism-based; conditions: in vivo
[5] = Drug level in human Plasma treated with [14C]-KAE609 assessed metabolite formation; assay type: ADME, cell-free
[6] = Inhibition of Plasmodium falciparum PI4K by pull down assay; parameters: species or system Plasmodium vivax
[7] = test system: Plasmodium falciparum; experiment: Antimalarial activity against Plasmodium falciparum; assay type: functional, organism-based
[8] = molecular target: T1, Dihydroorotate dehydrogenase (Plasmodium falciparum, UniProt Q54A96); experiment: Inhibition of Plasmodium falciparum DHODH expressed in Escherichia coli using L-dihydroorotate as substrate
T1 sequence (Q54A96 whole entry): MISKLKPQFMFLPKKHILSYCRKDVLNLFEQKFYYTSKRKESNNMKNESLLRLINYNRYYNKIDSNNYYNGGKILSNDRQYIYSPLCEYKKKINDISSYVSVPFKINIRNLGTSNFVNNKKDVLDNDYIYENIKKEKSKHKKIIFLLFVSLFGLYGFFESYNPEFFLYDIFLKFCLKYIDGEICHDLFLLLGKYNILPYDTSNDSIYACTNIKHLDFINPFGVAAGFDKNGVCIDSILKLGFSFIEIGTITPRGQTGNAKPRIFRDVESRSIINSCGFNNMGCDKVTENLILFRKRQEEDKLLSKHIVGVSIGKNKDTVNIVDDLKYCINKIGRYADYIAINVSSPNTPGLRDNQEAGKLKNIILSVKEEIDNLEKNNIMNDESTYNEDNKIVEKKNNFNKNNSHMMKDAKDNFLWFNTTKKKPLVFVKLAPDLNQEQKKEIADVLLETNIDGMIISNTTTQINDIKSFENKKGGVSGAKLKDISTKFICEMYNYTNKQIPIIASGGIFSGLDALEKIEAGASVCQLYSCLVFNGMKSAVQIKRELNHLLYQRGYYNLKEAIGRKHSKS

[9] = molecular target: Dihydroorotate dehydrogenase (quinone), mitochondrial (Homo sapiens, UniProt Q02127); experiment: Inhibition of human DHODH expressed in Escherichia coli using L-dihydroorotate as substrate
Dihydroorotate dehydrogenase (quinone), mitochondrial, sequence (Q02127 whole entry): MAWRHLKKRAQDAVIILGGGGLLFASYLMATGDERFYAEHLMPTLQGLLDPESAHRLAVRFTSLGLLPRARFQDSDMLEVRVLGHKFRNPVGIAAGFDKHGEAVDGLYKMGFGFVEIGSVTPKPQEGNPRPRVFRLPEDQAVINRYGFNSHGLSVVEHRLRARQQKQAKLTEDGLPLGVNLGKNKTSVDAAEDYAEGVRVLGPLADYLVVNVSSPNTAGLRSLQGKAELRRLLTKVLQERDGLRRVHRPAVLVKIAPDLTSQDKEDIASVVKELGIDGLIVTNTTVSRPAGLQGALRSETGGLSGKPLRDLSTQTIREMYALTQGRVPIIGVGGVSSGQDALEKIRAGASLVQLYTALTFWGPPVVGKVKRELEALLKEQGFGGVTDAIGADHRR

EC50 [1]: 1.8 µM
half-life [2]: 98 to 164 h
Tmax [3]: 95 to 143 h
AUC(0-inf) [4]: 167 to 1170 µg·h/mL
Compound: CC(F)(F)c1nc2nc(CO)cc(Nc3ccc(S(F)(F)(F)(F)F)cc3)n2n1

Drug uptake [5]: 8%
Compound: C[C@H]1Cc2c([nH]c3cc(Cl)c(F)cc23)-c2c3cc(Cl)ccc3nc(=O)n21

EC50 [6]: 0.0016 µM
Compound: Nc1ncc(-c2ccc(C(=O)N3CCC(N)C3)cc2)nc1-c1ccc(C(F)(F)F)cc1 (centres undefined)

EC50 [7]: 0.002 µM
IC50 [8]: 0.01 µM
IC50 [9]: 3.7 µM
Compound: Cc1cc(Nc2ccc(S(F)(F)(F)(F)F)c(F)c2)n2nc(C(C)(F)F)nc2n1
